Results from patent US8557790B2, “A3 adenoside receptor agonists for the reduction of intraocular pressure” (Can-Fite Biopharma Ltd., priority 2009, dated 2013).
“Also recorded” adds a separate entry of the source.

Test system: patients with moderate-to-severe Keratoconjunctivitis Sicca (KCS)
Assay: Phase 2 randomized, double-masked, placebo-controlled clinical study of oral IB-MECA; IOP measured at baseline and week 12
Assay type: in vivo, human
Protocol: A clinical study was conducted in patients with dry eye symptoms. The patients received an oral administration of IB-MECA at a dose of 1 mg or placebo, twice daily.
This study was a Phase 2, randomized, double-masked, placebo-controlled, parallel-group study in adult males and females, aged 18 years and over, with a diagnosis of moderate-to-severe Keratoconjunctivitis Sicca (KCS). Patients were randomized to receive either IB-MECA 1 mg or matching placebo, given orally, twice daily, for 12 weeks. A Screening Period of up to 4 weeks that includes a 2-week run-in period preceded a 12-week treatment period, followed by a 2-week follow-up period.
Some patients received either the IB-MECA capsules or a matching placebo and others received the IB-MECA tablets or a matching placebo.
Eligible patients to be included in the study were adult males or females, aged 18 years and over, with a diagnosis of moderate-to-severe KCS as defined by: • (1) at least 1 of the following ocular symptoms scored at ≧2, where 0=none and 4=very severe/interferes with normal activities: photophobia, blurred vision, foreign body sensation, soreness or pain, itching, burning, dryness; AND • (2) ST (without anesthesia)<7 mm/5 min in either eye; AND • (3) Positive FS, defined as a corneal punctuate fluorescein staining score of ≧1 in either eye, where 0=none and 3=severe. Use of topical ocular treatments was banned during the course of the study other than unreserved artificial tears (REFRESH) up to 8 times/day for the duration of the trial. Also banned was periocular cosmetic application. (c) Patients' Exclusion Criteria
Patients were excluded from the study if they had Sjögren's Syndrome with significant systemic non-exocrine gland involvement, Stevens-Johnson Syndrome, post-burn ocular injury, or chronic ocular disease other than KCS requiring topical treatment. Excluded were also patients being administered topical cyclosporine eye drops or systemic cyclosporine within 3 months prior to the Screening Visit; disease-modifying drugs, including methotrexate and biological agents, whose dose has been changed within 3 months prior to the Screening Visit or was expected to change during the trial; oral corticosteroids>10 mg prednisone, or equivalent, per day; or topical steroids within 2 weeks prior to the Screening Visit and for the duration of the study. […]

[1] = baseline to week 12, 1 mg orally twice daily, N=35

For CNC(=O)[C@H]1O[C@@H](n2cnc3c(NCc4cccc(I)c4)ncnc32)[C@H](O)[C@@H]1O [IB-MECA, N^6-(3-iodobenzyl)-adenosine-5′-N-methyluronamide], the “IOP % change, Mean” value [1] was −6.07%, the “IOP change, Mean” value [1] was −1.14 and the “decrease in IOP (% change)” value (baseline to week 12, versus 1.95% in the placebo group, p<0.05) was 6.07%. The “IOP week 12, Mean” value (end of 12 weeks treatment, 1 mg orally twice daily, N=35) was 13.00, the “effect on IOP (in words)” value (human subjects, oral 1 mg twice daily, tested subjects in general and patients with elevated IOP in particular) was “decreasing IOP; also recorded: lowering of intraocular pressure; also recorded: much more pronounce decrease in IOP than the placebo group” and the “effect on dry eye symptoms (in words)” value (patients with dry eye symptoms, oral 1 mg twice daily) was “amelioration of some of the dry eye symptoms”. The “IOP at baseline, Mean” value (prior to first treatment, KCS patients, capsules and tablets pooled, N=35) was 14.14.
